Columns and labels:
Type in all cases: in vivo
[1] = tested on: barnyardgrass (Echinochloa crus-galli); experiment: Test A preemergence, barnyardgrass; conditions: Preemergence, 0 to 100 scale (0 no effect, 100 complete control)
In short: (§1)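 Compounds, formulated in a surfactant-containing solvent mixture that is non-phytotoxic, are sprayed onto soil after seeding (preemergence) or onto young plants, one to two leaves and 2 to 10 cm high (postemergence). Response is scored visually after around 10 days, where 0 means no effect and 100 means complete control.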

kochia (Kochia scoparia) [2] = experiment: Test A preemergence, kochia; conditions: Preemergence, 0 to 100 scale (0 no effect, 100 complete control)
In short: as §1

[3] = tested on: ragweed (common ragweed, Ambrosia elatior); experiment: Test A preemergence, ragweed; conditions: Preemergence, 0 to 100 scale (0 no effect, 100 complete control)
In short: as §1

[4] = tested on: ryegrass, Italian (Italian ryegrass, Lolium multiflorum); experiment: Test A preemergence, Italian ryegrass; conditions: Preemergence, 0 to 100 scale (0 no effect, 100 complete control)
In short: as §1

[5] = tested on: foxtail, giant (giant foxtail, Setaria faberii); experiment: Test A preemergence, giant foxtail; conditions: Preemergence, 0 to 100 scale (0 no effect, 100 complete control)
In short: as §1

[6] = tested on: pigweed (Amaranthus retroflexus); experiment: Test A preemergence, pigweed; conditions: Preemergence, 0 to 100 scale (0 no effect, 100 complete control)
In short: as §1

[7] = tested on: barnyardgrass (Echinochloa crus-galli); experiment: Test A postemergence, barnyardgrass; conditions: postemergence, 0 to 100 scale, 0 is no effect, 100 is complete control, approximately 10 days
In short: as §1

kochia (Kochia scoparia) [8] = experiment: Test A postemergence, kochia; conditions: postemergence, 0 to 100 scale, 0 is no effect, 100 is complete control, approximately 10 days
In short: as §1

[9] = tested on: ragweed (common ragweed, Ambrosia elatior); experiment: Test A postemergence, ragweed; conditions: postemergence, 0 to 100 scale, 0 is no effect, 100 is complete control, approximately 10 days
In short: as §1

[10] = tested on: ryegrass, Italian (Italian ryegrass, Lolium multiflorum); experiment: Test A postemergence, Italian ryegrass; conditions: postemergence, 0 to 100 scale, 0 is no effect, 100 is complete control, approximately 10 days
In short: as §1

[11] = tested on: foxtail, giant (giant foxtail, Setaria faberii); experiment: Test A postemergence, giant foxtail; conditions: postemergence, 0 to 100 scale, 0 is no effect, 100 is complete control, approximately 10 days
In short: as §1

[12] = tested on: pigweed (Amaranthus retroflexus); experiment: Test A postemergence, pigweed; conditions: postemergence, 0 to 100 scale, 0 is no effect, 100 is complete control, approximately 10 days
In short: as §1

[13] = tested on: wheat (Triticum aestivum); experiment: Test A postemergence, wheat; conditions: postemergence, 0 to 100 scale, 0 is no effect, 100 is complete control, approximately 10 days
In short: as §1

corn (Zea mays) = experiment: Test A postemergence, corn; conditions: postemergence, 0 to 100 scale, 0 is no effect, 100 is complete control, approximately 10 days
In short: as §1

[14] = tested on: blackgrass (Alopecurus myosuroides); experiment: Test A postemergence, blackgrass; conditions: postemergence, 0 to 100 scale, 0 is no effect, 100 is complete control, approximately 10 days
In short: as §1

[15] = tested on: galium (catchweed bedstraw, Galium aparine); experiment: Test A postemergence, galium; conditions: postemergence, 0 to 100 scale, 0 is no effect, 100 is complete control, approximately 10 days
In short: as §1

rice (Oryza sativa) = experiment: Test B flooded paddy test, rice; conditions: 250 g ai/ha, Flood; visual rating after 13 to 15 days; scale 0 to 100, 0 is no effect, 100 is complete control
In short: (§2)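 Visual ratings, 0 = no effect to 100 = complete control, versus controls after 13 to 15 days in greenhouse. Test compounds were added to paddy water kept 3 cm over the soil surface, on plants at 2-leaf stage.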

[16] = tested on: sedge, umbrella (small-flower umbrella sedge, Cyperus difformis); experiment: Test B flooded paddy test, umbrella sedge; conditions: 250 g ai/ha, Flood; visual rating after 13 to 15 days; scale 0 to 100, 0 is no effect, 100 is complete control
In short: as §2

[17] = tested on: ducksalad (Heteranthera limosa); experiment: Test B flooded paddy test, ducksalad; conditions: 250 g ai/ha, Flood; visual rating after 13 to 15 days; scale 0 to 100, 0 is no effect, 100 is complete control
In short: as §2

[18] = tested on: barnyardgrass (Echinochloa crus-galli); experiment: Test B flooded paddy test, barnyardgrass; conditions: 250 g ai/ha, Flood; visual rating after 13 to 15 days; scale 0 to 100, 0 is no effect, 100 is complete control
In short: as §2

Structure (SMILES)	Plant response rating, Barnyardgrass ([1]; 31 g ai/ha)	Plant response rating, Barnyardgrass ([1]; 125 g ai/ha)	Plant response rating, Kochia (kochia (Kochia scoparia) [2]; 31 g ai/ha)	Plant response rating, Kochia (kochia (Kochia scoparia) [2]; 125 g ai/ha)	Plant response rating, Ragweed ([3]; 31 g ai/ha)	Plant response rating, Ragweed ([3]; 125 g ai/ha)	Plant response rating, Ryegrass, Italian ([4]; 31 g ai/ha)	Plant response rating, Ryegrass, Italian ([4]; 125 g ai/ha)	Plant response rating, Foxtail, Giant ([5]; 31 g ai/ha)	Plant response rating, Foxtail, Giant ([5]; 125 g ai/ha)	Plant response rating, Pigweed ([6]; 31 g ai/ha)	Plant response rating, Pigweed ([6]; 125 g ai/ha)	Plant response rating, Barnyardgrass ([7]; 31 g ai/ha)	Plant response rating, Barnyardgrass ([7]; 125 g ai/ha)	Plant response rating, Kochia (kochia (Kochia scoparia) [8]; 31 g ai/ha)	Plant response rating, Kochia (kochia (Kochia scoparia) [8]; 125 g ai/ha)	Plant response rating, Ragweed ([9]; 31 g ai/ha)	Plant response rating, Ragweed ([9]; 125 g ai/ha)	Plant response rating, Ryegrass, Italian ([10]; 31 g ai/ha)	Plant response rating, Ryegrass, Italian ([10]; 125 g ai/ha)	further results
FC(F)(F)CCCOc1c(Cl)cccc1Oc1ncc(Cl)cn1 [Compound 46]	10	80	0	80	0	0	0	10	40	100	0	100	0	30	50	80	0	10	0	10	Plant response rating, Foxtail, Giant ([11]; 31 g ai/ha): 20; Plant response rating, Foxtail, Giant ([11]; 125 g ai/ha): 60; Plant response rating, Pigweed ([12]; 31 g ai/ha): 50; Plant response rating, Pigweed ([12]; 125 g ai/ha): 90; Plant response rating, Wheat ([13]; 31 g ai/ha): 0; Plant response rating, Wheat ([13]; 125 g ai/ha): 0; Plant response rating, Corn (corn (Zea mays); 31 g ai/ha): 10; Plant response rating, Corn (corn (Zea mays); 125 g ai/ha): 20; Plant response rating, Blackgrass ([14]; 31 g ai/ha): 0; Plant response rating, Blackgrass ([14]; 125 g ai/ha): 40; Plant response rating, Galium ([15]; 31 g ai/ha): 30; Plant response rating, Galium ([15]; 125 g ai/ha): 70; Plant response rating, Rice (rice (Oryza sativa)): 0; Plant response rating, Sedge, Umbrella [16]: 100; Plant response rating, Ducksalad [17]: 98; Plant response rating, Barnyardgrass [18]: 0
FC(F)(F)/C=C/COc1c(Cl)cccc1Oc1ncc(Cl)cn1 [Compound 47]	10	50	0	80	0	0	0	10	30	100	0	60	10	40	50	90	0	10	0	10	Plant response rating, Foxtail, Giant ([11]; 31 g ai/ha): 20; Plant response rating, Foxtail, Giant ([11]; 125 g ai/ha): 70; Plant response rating, Pigweed ([12]; 31 g ai/ha): 20; Plant response rating, Pigweed ([12]; 125 g ai/ha): 90; Plant response rating, Wheat ([13]; 31 g ai/ha): 0; Plant response rating, Wheat ([13]; 125 g ai/ha): 0; Plant response rating, Corn (corn (Zea mays); 31 g ai/ha): 10; Plant response rating, Corn (corn (Zea mays); 125 g ai/ha): 20; Plant response rating, Blackgrass ([14]; 31 g ai/ha): 10; Plant response rating, Blackgrass ([14]; 125 g ai/ha): 50; Plant response rating, Galium ([15]; 31 g ai/ha): 50; Plant response rating, Galium ([15]; 125 g ai/ha): 80; Plant response rating, Rice (rice (Oryza sativa)): 0; Plant response rating, Sedge, Umbrella [16]: 100; Plant response rating, Ducksalad [17]: 85; Plant response rating, Barnyardgrass [18]: 0
Cl/C=C/COc1c(Cl)cccc1Oc1ncc(Cl)cn1 [Compound 48]	10	60	0	80	0	0	0	10	30	80	0	60	10	50	60	100	0	10	0	0	Plant response rating, Foxtail, Giant ([11]; 31 g ai/ha): 20; Plant response rating, Foxtail, Giant ([11]; 125 g ai/ha): 60; Plant response rating, Pigweed ([12]; 31 g ai/ha): 50; Plant response rating, Pigweed ([12]; 125 g ai/ha): 80; Plant response rating, Wheat ([13]; 31 g ai/ha): 0; Plant response rating, Wheat ([13]; 125 g ai/ha): 10; Plant response rating, Corn (corn (Zea mays); 31 g ai/ha): 10; Plant response rating, Corn (corn (Zea mays); 125 g ai/ha): 20; Plant response rating, Blackgrass ([14]; 31 g ai/ha): 0; Plant response rating, Blackgrass ([14]; 125 g ai/ha): 10; Plant response rating, Galium ([15]; 31 g ai/ha): 10; Plant response rating, Galium ([15]; 125 g ai/ha): 30; Plant response rating, Rice (rice (Oryza sativa)): 20; Plant response rating, Sedge, Umbrella [16]: 70; Plant response rating, Ducksalad [17]: 70; Plant response rating, Barnyardgrass [18]: 20
FC(F)(F)C(F)(F)CCCOc1c(Br)cccc1Oc1ncc(Cl)cn1 [Compound 49]	0	10	0	0	0	0	0	0	0	40	0	0	0	0	0	30	10	20	0	20	Plant response rating, Foxtail, Giant ([11]; 31 g ai/ha): 0; Plant response rating, Foxtail, Giant ([11]; 125 g ai/ha): 10; Plant response rating, Pigweed ([12]; 31 g ai/ha): 10; Plant response rating, Pigweed ([12]; 125 g ai/ha): 60; Plant response rating, Wheat ([13]; 31 g ai/ha): 0; Plant response rating, Wheat ([13]; 125 g ai/ha): 0; Plant response rating, Corn (corn (Zea mays); 31 g ai/ha): 10; Plant response rating, Corn (corn (Zea mays); 125 g ai/ha): 10; Plant response rating, Blackgrass ([14]; 31 g ai/ha): 0; Plant response rating, Blackgrass ([14]; 125 g ai/ha): 0; Plant response rating, Galium ([15]; 31 g ai/ha): 10; Plant response rating, Galium ([15]; 125 g ai/ha): 30; Plant response rating, Rice (rice (Oryza sativa)): 0; Plant response rating, Sedge, Umbrella [16]: 0; Plant response rating, Ducksalad [17]: 0; Plant response rating, Barnyardgrass [18]: 0
CCCOc1c(C#N)cccc1Oc1ncc(Cl)cn1 [Compound 50]	10	20	20	100	0	0	0	0	10	90	20	100	0	20	20	80	10	10	0	0	Plant response rating, Foxtail, Giant ([11]; 31 g ai/ha): 0; Plant response rating, Foxtail, Giant ([11]; 125 g ai/ha): 20; Plant response rating, Pigweed ([12]; 31 g ai/ha): 20; Plant response rating, Pigweed ([12]; 125 g ai/ha): 70; Plant response rating, Wheat ([13]; 31 g ai/ha): 0; Plant response rating, Wheat ([13]; 125 g ai/ha): 0; Plant response rating, Corn (corn (Zea mays); 31 g ai/ha): 10; Plant response rating, Corn (corn (Zea mays); 125 g ai/ha): 10; Plant response rating, Blackgrass ([14]; 31 g ai/ha): 0; Plant response rating, Blackgrass ([14]; 125 g ai/ha): 10; Plant response rating, Galium ([15]; 31 g ai/ha): 10; Plant response rating, Galium ([15]; 125 g ai/ha): 40; Plant response rating, Rice (rice (Oryza sativa)): 0; Plant response rating, Sedge, Umbrella [16]: 60; Plant response rating, Ducksalad [17]: 50; Plant response rating, Barnyardgrass [18]: 30
